Test results taken from publication PMC3361267 (Journal of Medicinal Chemistry, 2012).

Experiments:
[1] = cited from earlier work
[2] = target: T1, OATP1B3 (Homo sapiens, UniProt Q9NPD5)
T1 sequence (Q9NPD5 1-702): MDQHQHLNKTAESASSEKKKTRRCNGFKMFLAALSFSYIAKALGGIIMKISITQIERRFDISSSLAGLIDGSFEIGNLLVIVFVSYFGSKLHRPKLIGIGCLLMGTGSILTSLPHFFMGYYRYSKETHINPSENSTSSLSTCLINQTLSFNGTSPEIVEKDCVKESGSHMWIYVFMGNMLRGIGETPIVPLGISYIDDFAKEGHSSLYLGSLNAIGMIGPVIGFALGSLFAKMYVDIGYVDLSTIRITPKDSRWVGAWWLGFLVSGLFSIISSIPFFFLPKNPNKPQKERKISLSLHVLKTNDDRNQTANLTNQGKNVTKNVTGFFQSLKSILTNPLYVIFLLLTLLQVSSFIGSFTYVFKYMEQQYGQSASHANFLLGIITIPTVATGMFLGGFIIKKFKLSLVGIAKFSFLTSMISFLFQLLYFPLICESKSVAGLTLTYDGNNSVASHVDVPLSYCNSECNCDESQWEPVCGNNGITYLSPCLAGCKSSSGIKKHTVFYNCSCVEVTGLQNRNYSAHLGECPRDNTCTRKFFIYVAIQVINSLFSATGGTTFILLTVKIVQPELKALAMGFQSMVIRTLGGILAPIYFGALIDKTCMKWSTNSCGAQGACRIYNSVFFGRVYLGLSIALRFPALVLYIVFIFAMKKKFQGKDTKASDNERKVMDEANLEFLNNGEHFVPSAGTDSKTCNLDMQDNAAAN

[3] = target: T2, OATP1B1 (Homo sapiens, UniProt Q9Y6L6); experiment: Transport kinetics of substrate uptake in OATP1B1-HEK293 cells; format: cell-based; details: OATP1B1 mediated uptake
T2 sequence (Q9Y6L6 1-691): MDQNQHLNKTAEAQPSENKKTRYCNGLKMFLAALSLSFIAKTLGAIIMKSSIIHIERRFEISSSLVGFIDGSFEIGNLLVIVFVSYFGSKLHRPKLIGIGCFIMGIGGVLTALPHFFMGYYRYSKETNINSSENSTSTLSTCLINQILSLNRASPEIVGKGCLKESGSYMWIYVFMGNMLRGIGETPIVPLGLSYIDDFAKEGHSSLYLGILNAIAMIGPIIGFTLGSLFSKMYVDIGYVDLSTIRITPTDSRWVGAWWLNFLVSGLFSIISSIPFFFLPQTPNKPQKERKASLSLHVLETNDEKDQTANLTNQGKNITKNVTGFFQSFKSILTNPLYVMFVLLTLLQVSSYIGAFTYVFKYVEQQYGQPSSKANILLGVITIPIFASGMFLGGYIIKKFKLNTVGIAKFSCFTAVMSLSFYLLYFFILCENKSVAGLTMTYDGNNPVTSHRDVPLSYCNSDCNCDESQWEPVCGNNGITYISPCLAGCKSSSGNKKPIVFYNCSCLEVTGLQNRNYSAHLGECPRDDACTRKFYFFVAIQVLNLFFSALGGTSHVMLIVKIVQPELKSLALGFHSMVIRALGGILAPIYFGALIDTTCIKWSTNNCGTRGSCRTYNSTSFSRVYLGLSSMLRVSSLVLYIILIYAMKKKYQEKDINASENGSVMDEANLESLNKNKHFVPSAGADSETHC

Row | Structure (SMILES) | increase of atorvastatin AUC [1] [fold] | Vmax/Km [2] [μL/mg protein/min] | Km [3] [µM] | Vmax [3] [pmol/mg protein/min]
1 | CC[C@H]1OC(=O)[C@H](C)[C@@H](O[C@H]2C[C@@](C)(OC)[C@@H](O)[C@H](C)O2)[C@H](C)[C@@H](O[C@@H]2O[C@H](C)C[C@H](N(C)C)[C@H]2O)[C@](C)(OC)C[C@@H](C)C(=O)[C@H](C)[C@@H](O)[C@]1(C)O [clarithromycin, Clarithromycin] | 4.5 |  |  | 
2 | C[C@]12CC[C@@H]3c4ccc(O)cc4CC[C@H]3[C@@H]1CC[C@@H]2O[C@@H]1O[C@H](C(=O)O)[C@@H](O)[C@H](O)[C@H]1O [estradiol-17β-glucuronide] |  | 0.86 | 12.2 ± 5.94 | 15.44 ± 3.44
